Consider one molecule from PMC7615677 (Science translational medicine, 2023).

Where two headings read alike, the source gives them in different places.

Data set [1] is described as follows: In vitro cytotoxicity assays, all cell lines tested. Format: cell-based. As to conditions: mouse, human, African green monkey.
A short description of data set [2]: In vitro cytotoxicity assay. The format is cell-based. Conditions: human, MRC-5 human fetal lung fibroblasts.
Data set [3] is described as follows: In vitro metabolism, cryopreserved hepatocytes. The format is in vitro ADME, rat. The method, then:
Cell viability was determined using trypan blue exclusion. The incubation was performed on a plate shaker (Heidolph Titrimax 100, 900 rpm) placed in a humidified incubator (37°C, 7.5% CO2) for 240 min. The reaction was initiated with the addition of compound with samples taken periodically and quenched with the addition of acetonitrile containing internal standards (metolazone and diazepam). Quenched samples were maintained on ice for approximately 20-30 min, centrifuged (for 5 min) and the supernatant analyzed by LC-MS.
In vitro intrinsic clearance (CLint, μL/min/mg or μL/min/10^6 cells) values were calculated from the apparent first order degradation rate constant divided by the microsome concentration or the hepatocyte cell number (10^6 viable cells/mL). In vitro CLint values were then divided by the fraction unbound in the in vitro test system (to give CLint,u) and scaled to in vivo values (mL/min/kg) using published physiological scaling factors ([28]). Blood clearance in each species was then calculated using the well-stirred model of hepatic extraction (equation 2) where Q is the hepatic blood flow and fu,blood is calculated from fu,plasma/B:P: [2] PredictedCLblood=Q x fu,blood x CLint,u/Q+fu,blood x CLint,u
Blood clearance values were converted to plasma clearance by multiplying by the B:P.

The target in another data set is T1, CYP1A2 (Homo sapiens, UniProt P05177).
T1 construct: incubation of isoform-specific substrates with human liver microsomes; from tissue; host or cells: human liver microsomes
T1 sequence (P05177 1-516): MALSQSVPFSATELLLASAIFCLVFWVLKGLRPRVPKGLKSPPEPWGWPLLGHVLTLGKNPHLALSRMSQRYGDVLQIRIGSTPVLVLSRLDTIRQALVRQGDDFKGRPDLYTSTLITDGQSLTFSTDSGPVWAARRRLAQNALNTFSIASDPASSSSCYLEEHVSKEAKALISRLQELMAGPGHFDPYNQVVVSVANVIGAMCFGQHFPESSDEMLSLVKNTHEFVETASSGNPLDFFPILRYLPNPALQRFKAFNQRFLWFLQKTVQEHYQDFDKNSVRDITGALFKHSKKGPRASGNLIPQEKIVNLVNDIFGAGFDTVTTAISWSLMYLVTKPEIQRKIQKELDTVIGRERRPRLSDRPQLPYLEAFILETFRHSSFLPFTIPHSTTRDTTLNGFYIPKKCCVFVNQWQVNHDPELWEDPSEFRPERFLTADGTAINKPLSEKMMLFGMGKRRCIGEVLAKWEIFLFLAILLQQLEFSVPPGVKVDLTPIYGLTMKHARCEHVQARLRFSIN
Put plainly: Cytochrome P450 inhibition, human liver microsomes. Format: in vitro ADME. The procedure:
Direct CYP inhibition studies were conducted using conditions described previously ([43]) following incubation of isoform-specific substrates with human liver microsomes. The formation of known metabolites mediated by a specific CYP isoform was monitored. CYP isoform-specific pathways (and positive control inhibitors) included CYP1A2: phenacetin O-deethylation (furafylline), CYP2B6: bupropion hydroxylation (PPP), CYP2C8: amodiaquine deethylation (quercetin) CYP2C9: tolbutamide methylhydroxylation (sulfaphenazole), CYP2C19: (S)-mephenytoin 4’-hydroxylation (ticlopidine), CYP2D6: dextromethorphan O-demethylation (quinidine), and CYP3A: midazolam 1’-hydroxylation and testosterone 6β-hydroxylation (ketoconazole). […] The organic solvent content was maintained at less than 1% (v/v). NADPH was added to initiate the reaction which was then quenched by the addition of acetonitrile containing internal standard at specified times. Concentrations of the isoform-specific metabolites were quantified by LC-MS (Waters Xevo TQD triple quadrupole MS coupled to a Waters Acquity UPLC system) relative to calibration standards prepared in pre-quenched microsomal matrix.
Time dependent inhibition was assessed using an “IC50 shift” method based on a previous publication ([44]). […] A shift in the IC50 in the presence of NADPH (relative to the absence) was used as an indication of time dependent inhibition. Reference direct and time-dependent inhibitors were included in the assays.
(Liver microsomes are vesicles of endoplasmic reticulum, rich in cytochrome P450 enzymes.)

Data set [4] concerns the target T2, alpha1A Human Adrenoceptor GPCR (Homo sapiens, UniProt P35348).
T2 construct: Eurofins (contract assay)
Put plainly: α1A antagonism IC50 determination. Format: cell-based. From the text: Listed values represent the percent change relative to the DMSO control activity. When an IC50 had to be determined, eight different concentrations were included. All values are the mean of assay readout duplicates.

The subject of data set [5] is L5178Y mouse lymphoma cells. The data set is described as follows: In vitro mutation assay at the TK locus. Format: cell-based. Conditions: absence or presence of rat liver S9. The procedure:
Two independent mutation tests were carried out: one in which cells were treated for 3 h in the presence of rat liver S9 mix and with […] as a positive control, and a second treated for 24 h in the absence of S9 mix and with […] as a positive control. In both cases, DMSO was used as the negative control. In accordance with current guidelines ICH S2(R1), 2011 ([41]) mutant frequency was counted at concentrations where solubility was not a limiting factor and cytotoxicity was not observed.

The target of a further data set is hERG (Homo sapiens, UniProt Q12809). The data set is described as follows: hERG channel test (Qpatch / Qube). The format is cell-based. On the set-up: host or cells: Chinese hamster ovary cells. As to conditions: Qpatch hERG. The method, then:
Two concentrations (1 and 30 μM, two replicates each) were tested at room temperature.

Data set [6] relates to HEK293F-derived mitochondria. Put plainly: Calcium loading capacity (CLC) assessment. Format: biochemical. The method, then: The CLC of frozen HEK293F-derived mitochondria was determined using a method based on that previously described for fresh rat liver mitochondria ([23]). Briefly, a buffer (130 mM Sucrose, 37.54 mM KCl, 2.5 mM KH2PO4, 5 mM HEPES) containing 0.5 mM Ca^2+ and supplemented with 15 mM succinate, 2.5 μM rotenone and 0.15 μg/ml cell impermeant Fluo 5N (Life Technologies), was added to each well of a 384 well microplate (control wells also contained 0.24 μl/well DMSO or 3 μM cyclosporine). Thawed mitochondria suspended at 0.6 mg/ml were added to all wells to initiate the assay, and the fluorescence measured every 5 minutes at 520 nm in a PHERAstar FS microplate reader (BMG LabTech, Aylesbury, UK), (25 reads over 2 hours). Area under the curve (AUC) values for the first 10 reads were exported and the concentration-response relationship was modelled using the following formula: y=((B-A)/(1+(10^X/10^C)^D)+A where B=max, A=min, C=IC50, D=slope. The fitted curves were then used to calculate a pXC50 value.

Data set [7] is described as follows: Exploratory 14-day rat toxicology study.
Source text: Parameters monitored included morbidity/mortality, clinical signs, body weight, food consumption, hematology and serum clinical chemistry. Main study animals were killed on the day after the last dose and necropsied. Selected organs were weighed. Organ/tissue samples were fixed and preserved at necropsy. Following the macroscopic examination, selected organs/tissues were examined histopathologically and compared to the control group. Satellite animals were sampled for toxicokinetics on days 1 and 14, at various time-points after treatment.

Sequence of hERG (Q12809 whole entry): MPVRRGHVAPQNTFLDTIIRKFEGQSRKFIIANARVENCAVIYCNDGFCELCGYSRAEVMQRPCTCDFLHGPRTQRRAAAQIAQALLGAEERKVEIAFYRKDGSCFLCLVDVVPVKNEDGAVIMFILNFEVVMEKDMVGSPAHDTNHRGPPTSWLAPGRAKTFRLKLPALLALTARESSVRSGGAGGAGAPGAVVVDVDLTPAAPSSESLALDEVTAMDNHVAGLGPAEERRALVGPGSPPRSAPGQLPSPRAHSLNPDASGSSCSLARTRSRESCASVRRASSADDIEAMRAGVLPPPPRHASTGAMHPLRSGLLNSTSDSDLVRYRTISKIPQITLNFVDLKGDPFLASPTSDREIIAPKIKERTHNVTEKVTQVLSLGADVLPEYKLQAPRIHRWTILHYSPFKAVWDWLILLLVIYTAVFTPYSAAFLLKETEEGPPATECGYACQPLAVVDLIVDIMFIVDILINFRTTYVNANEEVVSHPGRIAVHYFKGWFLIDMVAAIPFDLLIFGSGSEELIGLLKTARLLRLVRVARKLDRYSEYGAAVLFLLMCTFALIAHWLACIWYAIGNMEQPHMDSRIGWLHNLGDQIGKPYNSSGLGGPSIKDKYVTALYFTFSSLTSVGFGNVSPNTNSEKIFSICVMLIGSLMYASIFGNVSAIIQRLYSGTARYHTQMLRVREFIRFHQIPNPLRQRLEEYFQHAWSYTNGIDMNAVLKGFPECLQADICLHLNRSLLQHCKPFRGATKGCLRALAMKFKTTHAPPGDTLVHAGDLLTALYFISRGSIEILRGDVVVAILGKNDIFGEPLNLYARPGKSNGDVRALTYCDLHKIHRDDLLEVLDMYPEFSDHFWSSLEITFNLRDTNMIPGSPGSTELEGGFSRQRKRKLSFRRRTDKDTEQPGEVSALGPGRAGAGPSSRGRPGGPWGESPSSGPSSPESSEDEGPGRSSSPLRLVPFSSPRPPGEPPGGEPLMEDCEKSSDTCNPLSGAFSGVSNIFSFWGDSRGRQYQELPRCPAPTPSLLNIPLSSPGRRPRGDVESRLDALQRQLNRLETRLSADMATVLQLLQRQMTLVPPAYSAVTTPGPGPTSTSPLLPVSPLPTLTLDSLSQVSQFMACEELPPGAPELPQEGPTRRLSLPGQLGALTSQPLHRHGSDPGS
T2 sequence (P35348 whole entry): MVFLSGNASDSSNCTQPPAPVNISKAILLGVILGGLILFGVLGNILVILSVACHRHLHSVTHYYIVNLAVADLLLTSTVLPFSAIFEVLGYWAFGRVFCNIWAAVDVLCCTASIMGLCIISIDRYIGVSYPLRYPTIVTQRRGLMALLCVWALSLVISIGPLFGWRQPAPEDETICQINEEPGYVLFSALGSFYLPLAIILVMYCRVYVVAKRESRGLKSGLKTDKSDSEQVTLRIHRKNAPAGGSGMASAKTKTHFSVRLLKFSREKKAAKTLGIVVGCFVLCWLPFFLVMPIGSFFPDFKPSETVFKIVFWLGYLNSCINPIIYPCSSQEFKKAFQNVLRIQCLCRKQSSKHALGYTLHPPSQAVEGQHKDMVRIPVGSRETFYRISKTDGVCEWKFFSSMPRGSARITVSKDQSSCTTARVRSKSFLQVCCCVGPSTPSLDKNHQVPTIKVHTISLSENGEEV

The CC50 is the concentration giving 50% cytotoxicity. Broadly, the hepatocyte CLint is a measure of how fast metabolising enzymes remove a compound, apart from limits set by blood flow. One may read the IC50 as the concentration that gives 50% inhibition. The inhibition is how much of the control response was suppressed. With `Cc1[nH]c2nc(N)nc(C)c2c1-c1ccc(C#N)c2c1OCO2` [DNDI-6174], the CC50 in data set [1] is greater than 37 µM; in [2] it was greater than 64 µM. For the same molecule, the “Hepatocyte predicted in vivo CLplasma” value in data set [3] (Rat) is recorded as 2.7 mL/min/kg. This molecule also gave a hepatocyte CLint at 0.5 µM in [3] (rat, cryopreserved hepatocytes) of 5.3 ± 0.19 µL/min/1e6 cells. Further, the IC50 at CYP1A2 (CYP1A2, read-out: Direct inhibition IC50) worked out at 5.1 µM; on CYP1A2 (with NADPH preincubation, read-out: Time-dependent inhibition IC50) it was 1 µM; on CYP1A2 (without NADPH preincubation, read-out: Time-dependent inhibition IC50) it was 3.4 µM; in data set [4], 12.8 µM. Moreover, the “genotoxicity, in words” value in [5] is given as “not genotoxic”. This molecule also had an inhibition at 1 µM against hERG (1 μM) of 3.81%. Also, testing at 10 µM at hERG (10 μM) gave an inhibition of 48%. Also, the “Mean pXC50, calcium loading capacity” value in data set [6] (HEK mitochondria) is listed as 5. For the same molecule, the “XC50, reduction in calcium loading capacity” value in data set [6] (isolated HEK mitochondria) is 10 µM. For the same molecule, the “tolerability, in words” value in data set [7] (200 mg/kg) is “early sacrifice of one female on day 5”; in data set [7] (30 and 80 mg/kg oral), “no mortality or morbidity”. In [7] (200 mg/kg, males), the body weight decrease is listed as greater than 10%.
